According to a melting point compilation (Tetko et al.; mined from patent text by program, amines drawn as free bases though some values may be those of a salt):

| SMILES | melting point |
| --- | --- |
| c1ccc2c(c1)cnn2N1CCNCC1 | 153 °C |
| O=C1O[C@@H](CNC(=S)C(F)F)CN1c1ccc(N2CCCS(=O)(=O)CC2)c(F)c1 | 128 to 130 °C |
| CC(=O)c1cc2c(Cl)cccc2s1 | 113 to 115 °C |
| O=C(O)C(CSc1nc2ccccc2[nH]1)CS(=O)(=O)c1ccc(-c2ccc(Cl)cc2)cc1 (stereo not given) | 176 to 179 °C |
| COc1ccccc1C(=O)c1[nH]c2cc(Cl)ccc2c1CC(=O)O | 214 to 217 °C |
| COC(=O)c1ccc(C(=O)O)cc1C(=O)OC | 168 to 169 °C |
| COc1cc(OC)nc(-c2ccc(-c3ccccc3S(=O)(=O)Nc3onc(C)c3C)cc2)n1 | 83 to 93 °C |
| CC(C)=CC(=O)N[C@H]1CC[C@H](CCN2CCN(c3nccc4c3CCO4)CC2)CC1 | 164 °C |
| CCc1c(-c2ccc(OC)cc2)c2c(CO)cc3cccc1n32 | 97 to 100 °C |
| CCNC(=O)n1nc(Oc2ccc([N+](=O)[O-])cc2)cc1C | 105 to 107 °C |
| N#Cc1cccc(-c2ccc(OC[C@@H](O)CCc3cccnc3)cc2)c1 | 74 to 75 °C |
| Cc1cc2c(cc1S(N)(=O)=O)S(=O)(=O)NC(C1CCCCC1)N2 (stereo not given) | 231 to 233 °C |
| Oc1cccc(C=C2c3ccccc3Cc3ccccc32)c1 | 196 °C |
| FC1CN(C(c2ccccc2)c2ccccc2)C1 | 154 to 156 °C |
| CNC(=S)N1CCc2[nH]cnc2C1 | 228 °C |
| CN1CCC(Oc2ccc(NC(=O)n3ccc4cc(Oc5cc(CC(N)=O)ncn5)ccc43)cc2C(F)(F)F)CC1 | 200 to 201 °C |
| CCCOC(=O)N=P(c1ccccc1)(c1ccccc1)c1ccccc1 | 90 to 91 °C |
| NC(N)=Nc1nc(-c2cccc(CNC(=O)CSCc3ccco3)n2)cs1 | 182 °C |
| CC(C)(C)Nc1nc2ccc(Cl)cc2c2nc(-c3ccco3)nn12 | > 330 °C |
| CC1(C)C(C=C2CCCC2)C1C(=O)OC(C#N)c1ccc(F)c(Oc2ccccc2)c1 (stereo not given) | 81 °C |
| CCOC(C)n1c(Cl)c(Cl)c(C#N)c1-c1ccc(Cl)c(Cl)c1 (stereo not given) | 124 to 126 °C |
| CCCc1c[nH]c(-c2ccnc(NC(=O)c3ccccc3)c2)n1 | 95 to 97 °C |

| SMILES | melting point |
| --- | --- |
| COC(=O)c1ccc(Cn2c(=O)c3cc(C(=O)NCc4ccc(OC)cc4)sc3n(C)c2=O)cc1OC | 201 to 203 °C |
| Cc1ccsc1C(=O)NP(N)(N)=O | 267 to 275 °C |
| COc1cc(C(F)(F)F)nc(NC(=O)Oc2ccccc2)n1 | 85 to 88 °C |
| CC(C)(C)OC(=O)Oc1ccc(C(=O)OCc2ccccc2)cc1 | 81 °C |
| CCCCCCCCCCCCSc1nnn(C(C(N)=O)(c2ccccc2)c2c(C(C)C)cccc2C(C)C)n1 (stereo not given) | 102 to 105 °C |
| Cc1nc(NC(=N)N)sc1C=O | 176 to 178 °C |
| Cc1cc(Cl)ccc1N=CN(C)SN(C)c1ccccc1 | 65 to 67 °C |
| CCCCCNc1cc(C(=O)OCCCCC)cc(S(N)(=O)=O)c1Oc1ccccc1 | 138 to 139 °C |
| Nc1ccc(C=C2SC(=O)NC2=O)cc1 | 265 to 270 °C |
| O=C(O)c1c(C(F)(F)F)nc2cc(C(F)(F)F)ccc2c1O | 240 °C |
| CC(=O)NC[C@H]1CN(c2ccc(N3CCC(n4cc(C#N)nn4)CC3)c(F)c2)C(=O)O1 | 148 to 150 °C |
| CN(CC#Cc1cc(CN2CCOCC2)cc2c(=O)c(C(=O)NCc3ccc(Cl)cc3)cn(C)c12)CCO | 148 to 149 °C |
| CS(=O)(=O)OC[C@@H](O)COc1ccc(C#N)cc1 | 119 to 121 °C |
| C/C(=C(\C#N)C(N)=S)N1CCCN(c2ccccn2)CC1 | 155 to 157 °C |
| Cc1ccc(OC(=O)CCC(=O)OOC(C)(C)C)cc1 | 72 to 77 °C |
| CC(C)(C)C(=O)N(O)Cc1ccccc1Cl | 100 to 102 °C |
| Cc1c(CC(=O)NS(=O)(=O)c2ccccc2)c2cc(OCc3ccc4ccccc4n3)ccc2n1Cc1ccc(Cl)cc1 | 194 to 197 °C |
| CC(C)(C)OC(=O)N1CC(CC=O)C1 | 52 to 54 °C |
| CCCC1(OCCO)CCNCC1 | 72 °C |
| O=C(O)C1=Cc2cc(Cl)cc(COCc3ccccc3)c2OC1C(F)(F)F (stereo not given) | 134 to 135 °C |
| NS(=O)(=O)c1ccc(N2CC(CO)OC2=O)cc1 (stereo not given) | 154 to 156 °C |

More lines, now with the values ahead:

| melting point | SMILES |
| --- | --- |
| 214 to 215 °C | O=C(O)c1ccc(OCC2CN(c3ccccc3)C(=S)O2)cc1 (stereo not given) |
| 186 to 187 °C | CN(C(=O)c1ccco1)c1cccc(-c2nc(=O)c3ccccc3s2)n1 |
| > 260 °C | O=C1CCC2=C1C(c1ccc(F)c(Br)c1)C1=C(CCS1)N2 (stereo not given) |
| 109 to 114 °C | COc1cc(OCc2cccnc2)ccc1/C=C/c1cc(/C=C/c2cccc3[nH]ccc23)n[nH]1 |
| 161 °C | Nc1ccc(NC2CCCCCCC2)c([N+](=O)[O-])c1 |
| 107 to 110 °C | CN1Cc2nnnn2-c2ccccc21 |
| 274 to 278 °C | O=c1cc(Nc2cc([N+](=O)[O-])ccc2Cl)[nH]n1-c1c(Cl)cc(Cl)cc1Cl |
| 82 to 84 °C | CCC(CC)(NCCCn1cnc(CO)c1)c1ccccc1 |
| 141 to 145 °C | COC(=O)c1ccc(CCC(C)(C)NCC(O)c2cc3ccccc3o2)cc1 (stereo not given) |
| 122 to 125 °C | CS(=O)Cc1cc(C(F)(F)F)ccc1N (stereo not given) |
| 184 to 186 °C | Cc1c(NC(=O)c2ccc(-c3ccccc3)cc2)ccc2cc(CN3CCCC3)cnc12 |
| 71 °C | CCSN(C)C(=O)Nc1ccc(Cl)c(Cl)c1 |
| 213 to 216 °C | CC(=O)c1ccc(-c2ncc[nH]2)cc1 |
| 124 °C | CC(C)C[C@@H](/C=C/CCO)NP(=O)(c1ccccc1)c1ccccc1 |
| 172 to 173 °C | CC(C)c1nc(-c2ccc(F)cc2)c(-c2ccc(F)cc2)n1/C=C/[C@@H](O)C[C@@H](O)CC(=O)O |
| 136 to 138 °C | CC1(C)CON(Cc2cc(N3C(=O)C4=C(CCCC4)C3=O)c(F)cc2Cl)C1=O |
| 196 to 200 °C | Cc1cc(C)c(/C=C2\C(=O)N(CO)c3ccccc32)[nH]1 |
| 60 to 62 °C | CCOC(=O)n1nc(N(C)C)c2c(Cl)cccc21 |
| 198 to 200 °C | Cc1nc(N2CCN(CC3CC3)C2=O)sc1C(N)=O |
| 227 to 230 °C | O=C(NC(=O)c1c(Cl)cccc1Cl)Nc1cc(-c2ccc(C(F)(F)F)cc2)on1 |
| 167 to 168 °C | O=C(O)c1ccc(F)c(F)c1Cl |

| melting point | SMILES |
| --- | --- |
| 148 to 150 °C | CS(=O)(=O)NC(c1ccccc1)c1ccccc1 |
| 76 to 77 °C | Nc1cccc(Oc2ccc(Cl)nn2)c1 |
| 173 to 176 °C | COC1CCN(c2cc(NC(=O)OC(C)(C)C)c(N)cc2C#Cc2ccccc2)CC1 |
| 205 to 206 °C | Nc1ccc(F)c2c1C(=O)c1ccccc1-2 |
| 180 to 181 °C | CC(C)c1cccc(C(C)C)c1NC(=O)NC1CC(C)(C)c2ccccc2C1(C)C (stereo not given) |
| 140 to 141 °C | CCOC(=O)c1cc(OCc2ccccc2)c2nc(C)c(C)n2c1 |
| 244 to 246 °C | Clc1ccc(-c2cc3nc(N4CCOCC4)c4ccccc4c3nn2)cc1 |
| 69 to 71 °C | CC(C)c1ccc2nc(Cl)cn2n1 |
| 193 to 194 °C | CNC(=O)Nc1cc(C(C)(C)C)c2c(c1)C(C)(C)CO2 |
| 167 to 169 °C | CCOc1ccc(S(=O)(=O)N(CCO)c2ccccc2/C=C/c2ccncc2)cc1 |
| 198 to 200 °C | COc1cc(NC(C)=O)c(Cl)cc1C(=O)NN1CCN(C)CC1 |
| 268 to 270 °C | O=C(O)C(=O)Nc1ccccc1C(=O)NC1CCN(C2CCCCC2)C1 (stereo not given) |
| 208 to 210 °C | CN1C2CCCC1CC(NC(=O)c1cccc3nc(-c4ccccc4)oc13)C2 (stereo not given) |
| 74 to 75 °C | CC(=O)C1C(=O)CN(Cc2ccccc2)C1=O (stereo not given) |
| 95 to 96 °C | O=C(c1ccccc1F)C1CCN(C(=O)Oc2ccccc2)CC1 |
| 155 to 156 °C | Cc1cc(O)c(C23CC4CC(CC(C4)C2)C3)cc1Br |
| 231 to 232 °C | Cc1cc2n(c(=O)n1)C(C)N=C2 (stereo not given) |
| 152 to 156 °C | NC1=NC(=O)N(C2CCCCC2)CC1Br (stereo not given) |
| 152 to 153 °C | COc1cccc(C(=O)c2ccc(OCc3nc(-c4ccccc4)oc3C)cc2)c1O |
| 66 to 68.5 °C | COC(=O)CC(C#Cc1cccc(-c2nc(C)no2)c1)c1ccc(OC)c(OC2CCCC2)c1 (racemic) |
| 261 to 264 °C | NC(Cc1cc(Cl)c(Sc2ccc(O)c(Cc3ccc(=O)[nH]c3)c2)c(Cl)c1)C(=O)O (stereo not given) |

| melting point | SMILES |
| --- | --- |
| 197 to 198 °C | CCCn1nc2c(N)nc3ccccc3c2c1CCNC(=O)NC(C)C |
| 173 °C | O=C(NC1CCn2c(CCc3ccccc3)nc3cccc1c32)c1ccccn1 (stereo not given) |
| 156 to 158 °C | CC(C)(C)c1nc(-c2ccccc2)[nH]c1C(C)(C)C |
| 252 to 253 °C | CCN(CC)c1ccc2cc(-c3nc(C)c(C(=O)OC)s3)c(=O)oc2c1 |
| 278 to 281 °C | Cn1c2cc(Cl)cc(Cl)c2c2cc(C(=O)O)sc21 |
| 17 °C | CN[C@@H]1CCCC[C@H]1NC (relative stereo) |
| 207 to 208 °C | NC(=O)c1c(Cl)c(-c2ccccc2)n2c1CN(S(=O)(=O)Nc1ccccc1)CC2 |
| 252 to 254 °C | Nc1ccc(F)c(C(=O)NCC(=O)O)c1 |
| 142 to 143 °C | NCC(=O)N(O)Cc1ccccc1 |
| 133 to 134 °C | COC(=O)c1cc2ccc(SCc3ccc(OC)cc3)cc2nc1OC |
| 122 to 123 °C | CCCc1nn(-c2ccc(C(F)(F)F)cn2)cc1CCCCOc1cc(CCC(=O)O)n(C)n1 |
| 192 to 193 °C | Cc1oc(-c2ccccc2)nc1COc1ccccc1C=CC=Cc1nnn[nH]1 |
| 193 to 195 °C | O=C(CC1CCCC1)NC[C@H]1CN(c2ccc3c(c2)CCCc2cnoc2-3)C(=O)O1 |
| 290 to 292 °C | CN1CCN(c2ccc(Nc3ncc4cc(C#N)c(=O)n(C5CCCC5)c4n3)cc2)CC1 |
| 142 to 144 °C | O=C1CCc2cc(Cl)ccc2C(=O)CCCN1 |
| 279 to 283 °C | Cc1[nH]c(=O)ccc1-c1ccc(O)c(N)c1 |
| 192 to 194 °C | CCCc1nc2c(N)nc3cc(OCc4ccc(C(F)(F)F)cc4)ccc3c2n1CC(C)C |
| 231 to 233 °C | Nc1c(N=O)c(=O)n(CCC2CCCCC2)c(=O)n1CCC1CCCCC1 |
| 95 to 97 °C | O=C(CCCCCCOc1ccc(OCc2ccccc2)cc1)c1nnc(COCc2ccccc2)o1 |
| 148 to 150 °C | COC(=O)c1sc(-c2ccccc2)c(N)c1N |
